Legend:
[1] = tested on: histone deacetylase (HDAC), nuclear extract of Hela cells; assay: Deacetylase activity on nuclear extract of HeLa cells (Fluor de Lys kit); type: biochemical, human; conditions: percent inhibition relative to control without inhibitor, compound at 0.1 μM
Procedure: (§1) The activity of the compounds as histone deacetylase (HDAC) inhibitors was measured using an in vitro acetylation assay. The compounds were then evaluated as inhibitors of proliferation of human tumor cell cultures.
Deacetylase Activity on Nuclear Extract of Hela Cells (Human Cervical Cancer Cell)
The assay (Fluor de Lys™ kit, BioMol) is divided into two steps: in the first step the substrate which comprises an acetylated lysine residue is reacted with the nuclear extract (HeLa) containing the enzymatic activity in the presence and absence of inhibitors. In the second step a fluorogenic reagent is added which highlights the deacetylated residues. A reduction in fluorescence is obtained where there has been inhibition of the deacetylase activity. The result is finally expressed as percent inhibition relative to the control without inhibitor at a concentration of 0.1 μM.

[2] = tested on: Human colon carcinoma cells HCT-116; assay: Cytotoxic activity on culture of human colon carcinoma cells HCT-116 (Alamar Blue); type: cell-based; conditions: HCT-116 cells, 72 hours after addition of compounds, Alamar Blue viability
Procedure: as §1
24 hours after seeding, the compounds at different concentrations are added. […] 72 hours after addition of the compounds, cell viability is measured by means of the dye Alamar Blue.

SMILES | % inhib. 0.1 μM [1] [%] | IC50 [2] [nM] | IC50 ([2]; Homo sapiens, HCT-116, 72 h) [nM]
O=C(CCCC1CCN(C(=O)Nc2cc3ccccc3s2)CC1)NO [Ex 195, N-(benzo[b]thiophene)-4-(4-(hydroxyamino)-4-oxobutyl)piperidine-1-carboxamide] | 42 | 400 | 
O=C(CCCC1CCN(C(=O)NCc2ccc(Cl)cc2)CC1)NO [Ex 34, 4-(3-Hydroxycarbamoyl-propyl)-piperidine-1-carboxylic acid 4-chloro-benzylamide] | 64 |  | 330
N[C@@H](CCc1ccccc1)C(=O)N1CCC(CCCC(=O)NO)CC1 [Ex 82, 4-[1-(2-(S)-Amino-4-phenyl-butyryl)-piperidin-4-yl]-N-hydroxy-butyramide] | 62 |  | 530
O=C(CCCC1CCN(C(=O)NCc2ccc(-c3ccsc3)cc2)CC1)NO [Ex 190, N-(4-(thiophen-3-yl)benzyl)-4-(4-(hydroxyamino)-4-oxobutyl)piperidine-1-carboxamide] | 69 |  | 480
N[C@@H](CC(=O)N1CCC(CCCC(=O)NO)CC1)Cc1ccc2ccccc2c1 [Ex 144, 4-[1-(3-(R)-Amino-4-naphthalen-2-yl-butyryl)-piperidin-4-yl]-N-hydroxy-butyramide] | 69 |  | 240
CN(C)[C@@H](CCc1ccccc1)C(=O)N1CCC(CCCC(=O)NO)CC1 [Ex 103, 4-[1-(2-(S)-Dimethylamino-4-phenyl-butyryl)-piperidin-4-yl]-N-hydroxy-butyramide] | 49 |  | 200
N[C@H](CC(=O)N1CCC(CCCC(=O)NO)CC1)Cc1cccc2ccccc12 [Ex 154, 4-[1-(3-(S)-Amino-4-naphthalen-1-yl-butyryl)-piperidin-4-yl]-N-hydroxy-butyramide] | 82 |  | 530
Cc1ccc(NC(=O)N2CCC(CCCC(=O)NO)CC2)c(N)c1 [Ex 126, 4-(3-Hydroxycarbamoyl-propyl)-piperidine-1-carboxylic acid (2-amino-4-methyl-phenyl)-amide] | 63 |  | 400
O=C(CCCC1CCN(C(=O)[C@H](CO)NC(=O)c2ccc3sccc3c2)CC1)NO [Ex 114, Benzo[b]thiophene-5-carboxylic acid{2-[4-(3-hydroxycarbamoyl-propyl)-piperidin-1-yl]-1-(S)-hydroxymethyl-2-oxo-ethyl}-amide] | 61 | 340 | 
O=C(CCCC1CCN(C(=O)NCc2ccccc2F)CC1)NO [Ex 45, 4-(3-Hydroxycarbamoyl-propyl)-piperidine-1-carboxylic acid 2-fluoro-benzylamide] | 79 |  | 890
N[C@@H](CC(=O)N1CCC(CCCC(=O)NO)CC1)C(=O)NCc1ccccc1 [Ex 193, 2-(s)-Amino-N-benzyl-4-[4-(3-hydroxycarbamoyl-propyl)-piperidin-1-yl]-4-oxo-butyramide] | 50 |  | 900
N[C@@H](CC(=O)N1CCC(CCCC(=O)NO)CC1)c1cccc2ccccc12 [Ex 158, 4-[1-(3-(S)-Amino-3-naphthalen-1-yl-propionyl)-piperidin-4-yl]-N-hydroxy-butyramide] | 60 |  | 900
O=C(CCCC1CCN(C(=O)NCc2csc3ccccc23)CC1)NO [Ex 157, N-(benzo[b]thiophen-3-ylmethyl)-4-(4-(hydroxyamino)-4-oxobutyl)piperidine-1-carboxamide] | 68 |  | 600
O=C(CCCC1CCN(C(=O)Nc2ccc(-c3cccc(F)c3)cc2)CC1)NO [Ex 165, 4-(3-Hydroxycarbamoyl-propyl)-piperidine-1-carboxylic acid (3′-fluoro-biphenyl-4-yl)-amide] | 64 |  | 700
O=C(CCCC1CCN(C(=O)[C@H](CO)NC(=O)c2nccc3ccccc23)CC1)NO [Ex 122, Isoquinoline-1-carboxylic acid {2-[4-(3-hydroxycarbamoyl-propyl)-piperidin-1-yl]-1-(S)-hydroxymethyl-2-oxo-ethyl}-amide] | 42 |  | 420
Cc1ccc2ccccc2c1C(=O)N1CCC(CCCC(=O)NO)CC1 [Ex 15, N-Hydroxy-4-[1-(2-methyl-naphthalene-1-carbonyl)-piperidin-4-yl]-butyramide] | 43 |  | 840
O=C(CCCC1CCN(C(=O)NCc2ccco2)CC1)NO [Ex 106, 4-(3-Hydroxycarbamoyl-propyl)-piperidine-1-carboxylic acid (furan-2-ylmethyl)-amide] | 52 |  | 710
Cc1cc(C)n(-c2ccc(NC(=O)N3CCC(CCCC(=O)NO)CC3)cc2)n1 [Ex 179, 4-(3-Hydroxycarbamoyl-propyl)-piperidine-1-carboxylic acid [4-(3,5-dimethyl-pyrazol-1-yl)-phenyl]-amide] | 70 |  | 500
O=C(CCCC1CCN(C(=O)CCNc2cccc3ccccc23)CC1)NO [Ex 186, 4-[1-(3-(1)Naphtylamino-propionyl)-piperidin-4-yl]-N-hydroxy-butyramide] | 81 | 360 | 
N[C@@H](CC(=O)N1CCC(CCCC(=O)NO)CC1)c1ccccc1 [Ex 112, 4-[1-(3-(S)-Amino-3-phenyl-propionyl)-piperidin-4-yl]-N-hydroxy-butyramide] | 55 |  | 310
N[C@@H](CC(=O)N1CCC(CCCC(=O)NO)CC1)c1ccc2ccccc2c1 [Ex 109, 4-[1-(3-(S)-Amino-3-naphthalen-2-yl-propionyl)-piperidin-4-yl]-N-hydroxy-butyramide] | 71 |  | 68
O=C(CCCC1CCN(C(=O)Nc2cccc3c2CCCC3)CC1)NO [Ex 198, 4-(3-Hydroxycarbamoyl-propyl)-piperidine-1-carboxylic acid (5,6,7,8-tetrahydro-naphthalen-1-yl)-amide] | 77 |  | 400
N[C@@H](CC(=O)N1CCC(CCCC(=O)NO)CC1)c1ccc2ccccc2c1 [Ex 149, 4-[1-(3-(S)-Amino-3-naphthalen-2-yl-propionyl)-piperidin-4-yl]-N-hydroxy-butyramide] | 62 | 130 | 
O=C(CCCC1CCN(C(=O)[C@H](CO)NC(=O)c2cc3ccccc3s2)CC1)NO [Ex 101, Benzo[b]thiophene-2-carboxylic acid {2-[4-(3-hydroxycarbamoyl-propyl)-piperidin-1-yl]-1-(S)-hydroxymethyl-2-oxo-ethyl}-amide] | 64 |  | 510
O=C(CCCC1CCN(C(=O)NCCCc2c[nH]c3ccccc23)CC1)NO [Ex 170, N-(3-(1H-indol-3-yl)propyl)-4-(4-(hydroxyamino)-4-oxobutyl)piperidine-1-carboxamide] | 51 |  | 200
N[C@H](CC(=O)N1CCC(CCCC(=O)NO)CC1)c1ccc2ccccc2c1 [Ex 111, 4-[1-(3-(R)-Amino-3-naphthalen-2-yl-propionyl)-piperidin-4-yl]-N-hydroxy-butyramide] | 66 |  | 550
COc1cc2ccccc2cc1NC(=O)N1CCC(CCCC(=O)NO)CC1 [Ex 161] | 76 | 30 | 

Reference: patent US20080207694A1, “Hydroxamates as Histone Deacetylase Inhibitors and Pharmaceutical Formulations Containing Them” (priority 2005, published 2008)
